From PubChem BioAssay (NCI)
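48-hour exposure; five concentrations; linearly interpolated endpoints. At the TGI there is no net growth.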

Assays:
Experiment in all cases: growth of human tumour cells (NCI), 48 h
SNB-75 CNS = test system: SNB-75 CNS
COLO 205 colon = test system: COLO 205 colon
OVCAR-4 ovarian = test system: OVCAR-4 ovarian
SF-268 CNS = test system: SF-268 CNS
K-562 leukemia = test system: K-562 leukemia
LXFL 529 NSCLC = test system: LXFL 529 NSCLC
KM12 colon = test system: KM12 colon
OVCAR-5 ovarian = test system: OVCAR-5 ovarian
EKVX NSCLC = test system: EKVX NSCLC
786-0 renal = test system: 786-0 renal
SF-539 CNS = test system: SF-539 CNS
U251 CNS = test system: U251 CNS
CAKI-1 renal = test system: CAKI-1 renal
SF-295 CNS = test system: SF-295 CNS
RXF 393 renal = test system: RXF 393 renal
UO-31 renal = test system: UO-31 renal
LOX IMVI melanoma = test system: LOX IMVI melanoma
RXF-631 renal = test system: RXF-631 renal
CCRF-CEM leukemia = test system: CCRF-CEM leukemia
HCT-116 colon = test system: HCT-116 colon
A549 NSCLC = test system: A549 NSCLC
IGROV1 ovarian = test system: IGROV1 ovarian
KM20L2 colon = test system: KM20L2 colon
SNB-19 CNS = test system: SNB-19 CNS
OVCAR-8 ovarian = test system: OVCAR-8 ovarian
NCI-H226 lung = test system: NCI-H226 lung
HT29 colon = test system: HT29 colon
UACC-257 melanoma = test system: UACC-257 melanoma
NCI-H23 lung = test system: NCI-H23 lung
XF 498 CNS = test system: XF 498 CNS
OVCAR-3 ovarian = test system: OVCAR-3 ovarian
NCI-H522 lung = test system: NCI-H522 lung
NCI-H460 lung = test system: NCI-H460 lung
SK-MEL-5 melanoma = test system: SK-MEL-5 melanoma
MALME-3M melanoma = test system: MALME-3M melanoma
TK-10 renal = test system: TK-10 renal
HCC-2998 colon = test system: HCC-2998 colon
HCT-15 colon = test system: HCT-15 colon
SR leukemia = test system: SR leukemia
MOLT-4 leukemia = test system: MOLT-4 leukemia
M14 melanoma = test system: M14 melanoma
A498 renal = test system: A498 renal
DMS 273 small cell lung = test system: DMS 273 small cell lung
SW-620 colon = test system: SW-620 colon
HOP-62 NSCLC = test system: HOP-62 NSCLC
SN12C renal = test system: SN12C renal
DMS 114 small cell lung = test system: DMS 114 small cell lung
RPMI-8226 leukemia = test system: RPMI-8226 leukemia
SK-OV-3 ovarian = test system: SK-OV-3 ovarian
HL-60(TB) leukemia = test system: HL-60(TB) leukemia
HOP-92 NSCLC = test system: HOP-92 NSCLC
M19-MEL melanoma = test system: M19-MEL melanoma
UACC-62 melanoma = test system: UACC-62 melanoma
SK-MEL-2 melanoma = test system: SK-MEL-2 melanoma
SK-MEL-28 melanoma = test system: SK-MEL-28 melanoma
DLD-1 colon = test system: DLD-1 colon
SNB-78 CNS = test system: SNB-78 CNS
HOP-18 NSCLC = test system: HOP-18 NSCLC
ACHN renal = test system: ACHN renal

Measured: TGI

CC(=O)N1c2ccccc2N(C(C)=O)C1c1ccc(C2N(C(C)=O)c3ccccc3N2C(C)=O)[nH]1
not listed: SK-MEL-2 melanoma | SK-MEL-28 melanoma | DLD-1 colon | SNB-78 CNS | HOP-18 NSCLC | ACHN renal
> 100 µM: all other assays above

O=S1Nc2cccc(C(F)(F)F)c2S1 (centres undefined)
55.4 µM: MOLT-4 leukemia
35.8 µM: COLO 205 colon
43 µM: HCT-15 colon
73.7 µM: RXF 393 renal
97.3 µM: A498 renal
88.6 µM: SK-MEL-2 melanoma
74.1 µM: LOX IMVI melanoma
29.3 µM: CCRF-CEM leukemia
59.9 µM: KM12 colon
82.8 µM: SNB-75 CNS
73.2 µM: HOP-92 NSCLC
64.4 µM: HCC-2998 colon
31.8 µM: HL-60(TB) leukemia
23.8 µM: SW-620 colon
98.7 µM: XF 498 CNS
83.2 µM: DMS 114 small cell lung
not listed: RXF-631 renal
> 100 µM: all other assays above

NC1=NN(c2ccccc2)C(=O)C1C(=O)C(=O)Nc1ccccc1 (centres undefined)
not listed: SNB-75 CNS | RXF 393 renal | RXF-631 renal | SR leukemia | SK-MEL-28 melanoma
> 100 µM: all other assays above

CC1OC(n2cc(F)c(=O)[nH]c2=O)CCC1=O (centres undefined)
88.7 µM: SF-539 CNS
not listed: EKVX NSCLC | NCI-H23 lung | XF 498 CNS | OVCAR-3 ovarian | SK-MEL-28 melanoma
> 100 µM: all other assays above
